The source of these data is US12064522B2, “Low temperature process for preparing silicon oxide coated pharmaceuticals” (priority 2020, dated 2024).

A short description of the data set: Flowability (Flow Function, FF) of API particles. In kind it is physicochemical.
Consider `CC(=O)Nc1ccc(O)cc1` [Acetaminophen], for which the “Flowability (Flow Function; FF) of uncoated particles” value was 2.61. For `CC(C)Cc1ccc(C(C)C(=O)O)cc1` (stereo not drawn) [ibuprofen] the value was 4.23; for `Cn1c(=O)c2[nH]cnc2n(C)c1=O` [theophylline], 10.
